Assay results: patent US6491729B1

What was measured:
[1] = dangerousness (Table 1)
[2] = degree of cleaning fabrics: Lab differences, whiteness and yellowness index of soil test cloth
Protocol: In the tests of the degree of cleaning fabrics in Examples 1 to 9, four kinds of standard soil test cloths are taken, the types of the cloth are respectively polyester, cotton, wool, polyester/cotton. The conditions of the tests of degree of cleaning fabrics are similar to those of the above dry-cleaning tests. After the soil test cloths have been dry cleaned, the reflectance, the whiteness index and the yellowness index thereof are measured by means of a color matching system to identify the degree of cleaning fabrics of the dry-cleaning solvents.
After the soil test cloths of polyester/cotton, wool, cotton and polyester are respectively dry-cleaned with the dry-cleaning solvents, the degrees of cleaning the soil test cloths of the dry-cleaning solvents is measured. The dry-cleaning procedure is carried out under the conditions that temperature is 25±2° C., liquid ratio is 1:40 and dry cleaning time is 30 minutes in a shaking manner and then the soil test cloths which have been dry-cleaned are dried under the temperature of 60±2° C.
Color differences can be analyzed according to Munsell Color Solid Theory and a bright and a chroma of a hue can be decided by means of a solid rectangular coordinate.
According to an opponent-color coordinate recommended by the CIE (Commission International de I'Eclairage) Society in 1976, wherein a redness-greenness coordinate is set to be the “a” coordinate with redness as a positive value and greenness as a negative together with a yellowness-blueness coordinate forms the “b” coordinate wherein yellowness indicates a positive value and blueness indicates a negative value, the two sets of coordinates form a two dimensional coordinate further with a third coordinate which indicates the bright to form the opponent-color coordinate designed by the CIE Lab, a bright value “L” in the third coordinate, a chroma value “a” in the redness-greenness coordinate and a chroma value “b” in the yellowness-blueness coordinate are related to red, blue, green tristimulus values as shown in the following:
ΔE=((ΔL)^2+(Δa)^2+(Δb)^2)^½
In FIG. 1, Δc indicates the chroma difference between a chroma value of a specimen sample and a chroma value of a standard sample, and Δh indicates the hue angle difference. By means of the analysis of chroma difference and hue angle difference, the two values Δc and Δh, can be easily obtained.

[3] = physical properties of the solvent; details: Table 1
[4] = soil test cloth of cotton, dry cleaned five times
[5] = soil test cloth of cotton, dry cleaned one time
[6] = soil test cloth of cotton, dry cleaned two times
[7] = soil test cloth of polyester/cotton, dry cleaned five times
[8] = soil test cloth of polyester/cotton, dry cleaned one time
[9] = soil test cloth of polyester/cotton, dry cleaned two times
[10] = soil test cloth of polyester, dry cleaned five times
[11] = soil test cloth of polyester, dry cleaned one time
[12] = soil test cloth of polyester, dry cleaned two times
[13] = soil test cloth of wool, dry cleaned five times
[14] = soil test cloth of wool, dry cleaned one time
[15] = soil test cloth of wool, dry cleaned two times

ClC(Cl)=C(Cl)Cl [perchloroethylene]
Dangerousness [1]: medium toxicity | ΔE [2, 4]: 2.88 | ΔL [2, 4]: 2.8 | Δa [2, 4]: −0.02 | Δb [2, 4]: −0.68 | Δc [2, 4]: −0.66 | Δh [2, 4]: 0.16 | yellowness index ([2]; soil test cloth of cotton, dry cleaned five times, before dry cleaned 3.85): 2.18 | whiteness index ([2]; soil test cloth of cotton, dry cleaned five times, before dry cleaned 39.47): 45.97 | ΔE [2, 5]: 4.27 | ΔL [2, 5]: 4.22 | Δa [2, 5]: −0.02 | Δb [2, 5]: −0.61 | Δc [2, 5]: −0.6 | Δh [2, 5]: 0.14 | yellowness index ([2]; soil test cloth of cotton, dry cleaned one time, before dry cleaned 3.85): 2.31 | whiteness index ([2]; soil test cloth of cotton, dry cleaned one time, before dry cleaned 39.47): 47.96 | ΔE [2, 6]: 4.09 | ΔL [2, 6]: 4.04 | Δa [2, 6]: −0.04 | Δb [2, 6]: −0.64 | Δc [2, 6]: −0.62 | Δh [2, 6]: 0.18 | yellowness index ([2]; soil test cloth of cotton, dry cleaned two times, before dry cleaned 3.85): 2.23 | whiteness index ([2]; soil test cloth of cotton, dry cleaned two times, before dry cleaned 39.47): 47.78 | ΔE [2, 7]: 2.83 | ΔL [2, 7]: 2.8 | Δa [2, 7]: −0.06 | Δb [2, 7]: −0.4 | Δc [2, 7]: −0.39 | Δh [2, 7]: 0.13 | yellowness index ([2]; soil test cloth of polyester/cotton, dry cleaned five times, before dry cleaned 3.41): 2.33 | whiteness index ([2]; soil test cloth of polyester/cotton, dry cleaned five times, before dry cleaned 37.82): 43.16 | ΔE [2, 8]: 3.29 | ΔL [2, 8]: 3.26 | Δa [2, 8]: −0.04 | Δb [2, 8]: −0.41 | Δc [2, 8]: −0.4 | Δh [2, 8]: 0.11 | yellowness index ([2]; soil test cloth of polyester/cotton, dry cleaned one time, before dry cleaned 3.41): 2.32 | whiteness index ([2]; soil test cloth of polyester/cotton, dry cleaned one time, before dry cleaned 37.82): 43.87 | ΔE [2, 9]: 3.96 | ΔL [2, 9]: 3.94 | Δa [2, 9]: −0.07 | Δb [2, 9]: −0.43 | Δc [2, 9]: −0.41 | Δh [2, 9]: 0.15 | yellowness index ([2]; soil test cloth of polyester/cotton, dry cleaned two times, before dry cleaned 3.41): 2.23 | whiteness index ([2]; soil test cloth of polyester/cotton, dry cleaned two times, before dry cleaned 37.82): 44.96 | ΔE [2, 10]: 5.67 | ΔL [2, 10]: 5.26 | Δa [2, 10]: −0.14 | Δb [2, 10]: −0.14 | Δc [2, 10]: 0.15 | Δh [2, 10]: −0.13 | whiteness index ([2]; soil test cloth of polyester, dry cleaned five times, before dry cleaned 45.11): 55.02 | yellowness index ([2]; soil test cloth of polyester, dry cleaned five times, before dry cleaned −10.35): −10.21 | ΔE [2, 11]: 6.68 | ΔL [2, 11]: 6.68 | Δa [2, 11]: −0.19 | Δb [2, 11]: 0.07 | Δc [2, 11]: −0.06 | Δh [2, 11]: −0.19 | whiteness index ([2]; soil test cloth of polyester, dry cleaned one time, before dry cleaned 45.11): 56.16 | yellowness index ([2]; soil test cloth of polyester, dry cleaned one time, before dry cleaned −10.35): −9.61 | ΔE [2, 12]: 7.61 | ΔL [2, 12]: 7.6 | Δa [2, 12]: −0.17 | Δb [2, 12]: −0.2 | Δc [2, 12]: 0.21 | Δh [2, 12]: −0.16 | whiteness index ([2]; soil test cloth of polyester, dry cleaned two times, before dry cleaned 45.11): 58.86 | yellowness index ([2]; soil test cloth of polyester, dry cleaned two times, before dry cleaned −10.35): −10.22 | ΔE [2, 13]: 1.9 | ΔL [2, 13]: −1.66 | Δa [2, 13]: −0.1 | Δb [2, 13]: −0.93 | Δc [2, 13]: −0.9 | Δh [2, 13]: 0.27 | yellowness index ([2]; soil test cloth of wool, dry cleaned five times, before dry cleaned 11.22): 9 | whiteness index ([2]; soil test cloth of wool, dry cleaned five times, before dry cleaned 22.57): 23.54 | ΔE [2, 14]: 2.1 | ΔL [2, 14]: −2.1 | Δa [2, 14]: −0.04 | Δb [2, 14]: −0.03 | Δc [2, 14]: −0.03 | Δh [2, 14]: 0.05 | yellowness index ([2]; soil test cloth of wool, dry cleaned one time, before dry cleaned 11.22): 11.37 | whiteness index ([2]; soil test cloth of wool, dry cleaned one time, before dry cleaned 22.57): 20.62 | ΔE [2, 15]: 2.09 | ΔL [2, 15]: −1.91 | Δa [2, 15]: −0.09 | Δb [2, 15]: −0.83 | Δc [2, 15]: −0.8 | Δh [2, 15]: 0.23 | yellowness index ([2]; soil test cloth of wool, dry cleaned two times, before dry cleaned 11.22): 9.3 | whiteness index ([2]; soil test cloth of wool, dry cleaned two times, before dry cleaned 22.57): 22.99 | increase of whiteness index ([2]; soil test cloth of wool, times not stated): does not change appreciably | Boiling point [3]: 121 °C | Solubility [3]: Insoluble in water, | Specific gravity [3]: 1.625
